Results taken from paper PMC4627230, “Identification of TAX2 peptide as a new unpredicted anti-cancer agent” (Oncotarget, 2015).

Assays:
[1] = tested on: immobilized TSP-1 (thrombospondin from human platelets); experiment: ELISA competition by unlabeled TAX2; assay type: binding; conditions: biotinylated TAX2 10 μg/mL; unlabeled competitor 0.001 to 5 mg/mL
Protocol: Microtiter plates (Nunc, ThermoFisher Scientific, Courtaboeuf, France) were coated overnight at 4°C with 0.5 μg TSP-1 in sodium carbonate-bicarbonate (BupH) buffer (Thermo Fisher Scientific). Plates were washed with PBS 0.1% BSA (Sigma-Aldrich) and non-specific sites were saturated during 30 min using 1% (w/v) BSA in BupH buffer. Biotin-labeled peptide (10 μg/mL, determined after dose-response assay from 0.01 to 100 μg/mL) was added in buffer containing 0.5% (w/v) BSA and incubated for 3 h at room temperature. Non-labeled peptide (0.001 to 5 mg/mL) was used as selective competitor. Plates were washed with PBS containing 0.1% (w/v) BSA and treated for 30 min with mouse anti-biotin antibody. Bound antibody was quantified using the mouse IgG Elite Vectastain ABC kit (Vector Laboratories) followed by incubation with 1-Step Turbo TMB substrate as a chromogen (ThermoFisher Scientific). The reaction was stopped with 0.5 M H2SO4 and absorbance was read at 450 nm.

[2] = tested on: B16F1 melanoma tumor in C57BL/6 mice; experiment: Subcutaneous B16F1 melanoma allograft: tumor volume and necrosis; assay type: in vivo, mouse; conditions: 10 mg/kg i.p. days 3, 5, 7
Protocol: (§1) For the subcutaneous melanoma tumor model, suspensions of B16F1 cells (2.5 × 10^5 cells in 100 μL RPMI-1640 medium) were subcutaneously injected into the left flank of different randomized series of syngeneic C57BL/6 mice (n = 8–10 per group), as previously described. Intraperitoneal administrations of peptide (10 mg/kg mouse weight) or controls (physiological serum 0.9% (w/v) NaCl or a scrambled peptide) were performed at days 3, 5 and 7. In human pancreatic carcinoma xenograft experiments, 3 × 10^6 MIA PaCa-2 cells/mouse were implanted subcutaneously into the left flank of BALB/C athymic nude mice, then TAX2 intraperitoneal treatments (10 mg/kg mouse weight) were performed 3 times a week during 4 weeks starting at day 10 after tumor cells inoculation. Tumor volume was determined according to v = 0.5 A × B^2, where A denotes the largest dimension of the tumor and B represents the smallest dimension. At days indicated, mice were sacrificed and tumors were surgically extracted and fixed in 4% paraformaldehyde for further morphologic studies and for magnetic resonance imaging, or frozen for immunohistochemistry. Mice were also weighed every 2–3 days and daily checked for any modification in their behavior. Loss of 15% body weight was an indication for euthanasia as well as severe tumor necrosis, as it was sometimes associated with skin ulceration that would result in loss of body fluid and/or infection.
(§2) Histological analysis of formaldehyde-fixed and paraffin-embedded tumors were performed on hemalun, phloxin and saffron (HPS) stained 3 μm thick sections prepared using routine histological methods. To assess tumor-associated microvessel density (MVD), CD31 immunostaining was performed on 5 μm thick cryosections using biotin-labeled secondary antibody and streptavidin-HRP AEC detection system (Microm Microtech, Francheville, France), followed by hematein counter-coloration. Negative controls were done omitting the primary antibody. The necrotic part relative to total tumor surface for each tumor slice as well as MVD were quantified using ImageJ software.
Tumors were studied by magnetic resonance imaging (MRI) for visualization of tumor necrosis when the subcutaneous allografts reached a diameter of about 0.8 cm (day 12). […] Image treatment, segmentation, tri-dimensional reconstruction and quantification were performed using ImageJ and Amira 5.4.3 (Visualization Sciences Group, Burlington, MA, USA) software.
Animals were anesthetized by isoflurane (Forene, Abbott France, Rungis, France) inhalation (3% for induction and 1–1.5% for maintenance) and then after placed in a carbon fibers bed. […] Analysis of reconstructed images and quantification of the vascular network were performed using Amira 5.4.3 software.

[3] = tested on: tumor vascularization of B16F1 melanoma in C57BL/6 mice; experiment: B16F1 melanoma tumor angiography (μCT) and CD31 immunostaining; assay type: in vivo, mouse; conditions: 10 mg/kg i.p. days 3, 5, 7
Protocol: as §1, §2
Animals were anesthetized by isoflurane (Forene, Abbott France, Rungis, France) inhalation (3% for induction and 1–1.5% for maintenance) and then after placed in a carbon fibers bed. CT images were acquired on a dedicated small animal μCT scanner (Skyscan 1076, Bruker, Kontich, Belgium) while continuously rotating the camera by 180° with the following parameters: 50 kV, 0.5 mm Al filter, 200 μA source current, 35 μm isotropic resolution, 180 ms exposure time, 4 projection images per 0.7° rotation step and a retrospective synchronization. The projections were reconstructed using a filtered backprojection algorithm using Skyscan software (NRecon, Skyscan). For tumor angiography analysis, an alkaline earth-based nanoparticulate contrast agent (Viscover ExiTron nano 12000, Miltenyi Biotec, Paris, France) was injected in the mouse tail vein. Mice were imaged during the next 30 min following injection, a period during which no reduction in contrast was observed. Analysis of reconstructed images and quantification of the vascular network were performed using Amira 5.4.3 software.

[4] = μCT angiography, representative of n = 5

Question: “CEVSQLLKGDAC (disulfide) [TAX2, CD47-derived cyclic disulfide dodecapeptide …]” was tested. Which “competition with biotinylated TAX2 for TSP-1 binding” value [1] did it give?
Answer: Competitive binding occurred in a dose-dependent fashion

Question: And the “large central necrotic area inside tumor masses (MRI and μCT)” value [2]?
Answer: large central necrotic area inside tumor masses

Question: And the “median tumor volume, melanoma” value ([2]; early stages (day 12, caliper), n = 54)?
Answer: No significant modification

Question: And the “increase of necrotic area vs control (HPS staining)” value ([2]; p < 0.05)?
Answer: about 3 fold

Question: And the “tumor necrosis at day 20” value ([2]; photographs)?
Answer: substantial tumor necrosis

Question: What about the “tumor vasculature appearance in 3D reconstruction, day 14” value [3] of the same sequence?
Answer: highly anarchic and discontinuous, only at the tumor surface, surrounding a central hemorrhagic area

Question: And the “blood vessel size (CD31)” value ([3]; tumor cryosections, n = 6)?
Answer: diminution in vessel size

Question: What about the “diminution in intratumoral MVD (CD31)” value ([3]; tumor cryosections, n = 6) of the same sequence?
Answer: 60%

Question: What about the “blood vessels within tumors, day 7” value [3, 4] of the same sequence?
Answer: undetectable

Question: What about the “central vascular network within tumors, day 14” value [3, 4] of the same sequence?
Answer: still lacking and a wide hemorrhagic area corresponding to the previously described necrotic zone was observed

Question: What about the “intratumoral vascularization, day 10” value [3, 4] of the same sequence?
Answer: restricted to tumor periphery

Question: And the “length and diameter of tumor blood vessels” value ([3]; μCT day 14)?
Answer: significantly decreased both the length and diameter of blood vessels

Question: What about the “reduction in blood vessel mean volume” value ([3]; μCT day 14) of the same sequence?
Answer: 2 fold
